Laboratory results reported in publication PMC12920416, “Preclinical development of [^18F]TAAR1-2203 as a PET radioligand for imaging TAAR1 expression and receptor occupancy” (European Journal of Nuclear Medicine and Molecular Imaging, 2025).

Experiments:
[1] = Stability in formulation, saline and phosphate buffer; format: physicochemical; conditions: up to 4 h at ambient temperature
Experimental: […] Analytical HPLC was performed using an XBridge C18 column (3.5 μm, 4.6 mm × 150 mm) under isocratic conditions with a mobile phase of MeCN/H2O (35:65, v/v) containing 0.1% triethylamine (TEA) at a flow rate of 1.0 mL/min.

[2] = Serum stability, rat serum; format: in vitro ADME; conditions: 60 min, 37 °C
Experimental: (§1) The stability of [^18F]TAAR1-2203 was assessed in mouse, rat, NHP, and human serum. Aliquots (400 µL) of serum were preincubated at 37 °C for 5 min, followed by the addition of [^18F]TAAR1-2203 (20 µL, 300 µCi/11.1 MBq). After 60 min, 200 µL of each sample was collected, quenched with ice-cold MeCN (200 µL), centrifuged at 10,000 g for 5 min, and analyzed by radio-HPLC (XBridge C18 column, 3.5 μm, 4.6 mm × 150 mm; CH3CN/H2O 35:65 with 0.1% TEA; flow rate 1.0 mL/min). Experiments in PBS served as negative controls, and benfluorex hydrochloride was used as a positive control.

[3] = Serum stability, NHP serum; format: in vitro ADME, non-human primate; conditions: 60 min, 37 °C
Experimental: as §1

[4] = Microsomal stability, NHP liver microsomes; format: in vitro ADME, non-human primate; conditions: after 60 min, 37 °C
Experimental: Microsomal stability of [^18F]TAAR1-2203 was evaluated using mouse, rat, NHP, and human liver microsomes. Potassium phosphate buffer (340 µL, 0.5 M, pH 7.4) was combined with NADPH regenerating solution (40 µL, 10 mM). Radiotracer solution (10 µL, 150 µCi, 5.5 MBq) was added, and the mixture was preincubated at 37 °C for 5 min. Liver microsomes (20 µL) were subsequently added. Incubations were carried out at 37 °C with gentle shaking. At 30 and 60 min, 200 µL aliquots were quenched with ice-cold MeCN (200 µL), centrifuged at 10,000 g for 5 min, and analyzed using an AR-2000 radio-TLC imaging scanner (Eckert & Ziegler).

[5] = Plasma protein binding of tracer, rat plasma; format: in vitro ADME; conditions: radiotracer, 10 min incubation, ultrafiltration, read-out: Free fraction in rat plasma
Experimental: (§2) Plasma protein binding of [^18F]TAAR1-2203 was determined in mouse, rat, NHP, and human plasma. Plasma samples (150 µL, n = 3) were preincubated at 37 °C for 5 min before addition of [^18F]TAAR1-2203 (10 µCi, 0.37 MBq). After 10 min of incubation, 300 µL of ice-cold PBS were added. Samples (300 µL) were then transferred onto Amicon® centrifugal filter units (10 kDa cut-off) and centrifuged at 2100 g for 15 min at 4 °C. Filtrates were washed with 300 µL PBS and centrifuged again. Radioactivity in the filtrate and protein-bound fractions was measured using a Packard Cobra 5002/5003 gamma counter.

[6] = Plasma protein binding of tracer, NHP plasma; format: in vitro ADME; conditions: non-human primate, radiotracer, 10 min incubation, ultrafiltration, read-out: Free fraction in NHP plasma
Experimental: as §2

[7] = target: T1, TAAR1 (Mus musculus, UniProt Q923Y8); assay: In vitro autoradiography, mouse pancreas and kidney sections; format: binding, CD1 mice; conditions: tracer 5–8 nM; blockade with RO5333943 or RO5425754 at 10 µM
T1 construct: peripheral organs that express endogenous TAAR1; tissue Charles River (wild-type); F. Hoffmann-La Roche Ltd. (TAAR1 knock-out and matched controls); host or cells: mouse pancreas, kidney, liver, brain
Experimental: (§3) In vitro autoradiography experiments with [^18F]TAAR1-2203 were conducted on mouse and rat pancreas, kidney and brain tissue sections, respectively. Tissue Sect. (20 μm) were thawed on ice for 10 min and preincubated in assay buffer (50 mM Tris, pH 7.4) for 10 min. Subsequently, sections were incubated with [^18F]TAAR1-2203 for 40 min at ambient temperature. For blocking studies, structurally distinct TAAR1 agonists, RO5333943 or RO5425754, were added in excess to the assay buffer at a final concentration of 10 µM. After incubation, sections were washed in assay buffer for 2 min on ice and dipped briefly in water (2 × 5 s), followed by drying and exposure to a phosphor imager plate for 60 min. Imager plates were scanned on an Amersham Typhoon analyzer system, and images were analyzed using ImageQuant TL 8.1, as previously reported.

[8] = target: T2, TAAR1 (Rattus norvegicus, UniProt Q923Y9); assay: In vitro autoradiography, rat pancreas and kidney sections; format: binding, Sprague Dawley rats; conditions: tracer 5–8 nM; blockade with RO5333943 or RO5425754 at 10 µM
T2 construct: peripheral organs that express endogenous TAAR1; tissue Charles River; host or cells: rat pancreas, kidney
Experimental: as §3

[9] = target: T1, TAAR1; assay: Ex vivo whole-body biodistribution, baseline and blockade; format: in vivo, CD1 mice
Experimental: Female CD1 mice (16 weeks old, n = 4) received [^18F]TAAR1-2203 (15 µCi, 0.56 MBq in 100 µL saline) via tail vein injection. For blocking studies, TAAR1 agonist RO5425754 (4 mg/kg) dissolved in saline containing 10% DMSO and 5% Tween® 80 was administered shortly before tracer injection through the same i.v. catheter. Mice were sacrificed at 5, 15, 30, and 60 min post-injection (n = 4 per group), and organs were harvested, weighed, and measured for radioactivity using a Packard Cobra 5002/5003 gamma counter. Data were decay-corrected and expressed as percentage of injected dose per gram of wet tissue (%ID/g).

[10] = Ex vivo radiometabolite analysis; format: in vivo, CD1 mice; conditions: 30 min post-injection, n = 3
Experimental: Female CD1 mice (20 weeks old, n = 3) were injected with [^18F]TAAR1-2203 (100 µCi, 3.7 MBq) and sacrificed 30 min post-injection. Brain, pancreas, and plasma samples were collected. Organs were homogenized in ice-cold acetonitrile (CH3CN). Plasma was obtained by centrifugation at 1400 rpm for 5 min at 4 °C, and proteins were precipitated with repeated CH3CN extraction until clear supernatants were obtained. Analytical samples were spiked with non-radioactive TAAR1-2203 and analyzed by radio-HPLC (XBridge C18 column; CH3CN/H₂O 35:65, with 0.1% TEA; flow rate 1.0 mL/min). Parent tracer fractions were determined as the percentage of intact [^18F]TAAR1-2203 relative to total detected radioactivity.

[11] = baseline, i.v., initial uptake post-injection
[12] = blockade with RO5425754 4 mg/kg, 15 min post-injection, n = 4

T1 sequence (Q923Y8 whole entry): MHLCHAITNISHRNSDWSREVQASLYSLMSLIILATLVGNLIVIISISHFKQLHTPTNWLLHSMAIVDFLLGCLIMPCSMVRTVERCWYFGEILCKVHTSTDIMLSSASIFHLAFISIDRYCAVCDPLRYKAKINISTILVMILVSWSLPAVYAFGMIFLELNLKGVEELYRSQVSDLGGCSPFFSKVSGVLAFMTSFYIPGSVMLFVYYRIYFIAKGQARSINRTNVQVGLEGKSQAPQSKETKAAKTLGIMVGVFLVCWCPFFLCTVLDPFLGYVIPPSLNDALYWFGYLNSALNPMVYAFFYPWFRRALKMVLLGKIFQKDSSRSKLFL
T2 sequence (Q923Y9 whole entry): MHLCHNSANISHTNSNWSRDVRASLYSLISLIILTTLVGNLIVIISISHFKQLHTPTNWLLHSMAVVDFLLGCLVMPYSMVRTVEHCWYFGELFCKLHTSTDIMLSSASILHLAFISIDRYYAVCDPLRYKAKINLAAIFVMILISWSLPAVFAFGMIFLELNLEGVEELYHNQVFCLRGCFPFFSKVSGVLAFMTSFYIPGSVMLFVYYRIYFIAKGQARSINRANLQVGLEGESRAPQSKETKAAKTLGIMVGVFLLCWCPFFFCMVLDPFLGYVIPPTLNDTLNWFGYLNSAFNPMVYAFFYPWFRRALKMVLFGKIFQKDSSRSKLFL

Cc1c([18F])cccc1[C@H]1COC(N)=N1 [[^18F]TAAR1-2203]
Stability in formulation [1]: no detectable degradation
Intact parent tracer in rat serum [2]: > 99%
Intact parent tracer in NHP serum [3]: > 99%
Intact tracer in NHP liver microsomes [4]: > 99%
fraction unbound at 10 min, 2.47 MBq/mL [5]: ~0.6
fraction unbound at 10 min, 2.47 MBq/mL [6]: ~0.6
Reduction of tracer binding, mouse kidney [7]: greater than 70%
Reduction of tracer binding, mouse pancreas [7]: more than 50%
Reduction of tracer binding, rat kidney [8]: greater than 70%
Reduction of tracer binding, rat pancreas [8]: more than 50%
Initial uptake in kidney [9, 11]: exceeding 10 % ID/g
Initial uptake in lung [9, 11]: exceeding 10 % ID/g
Initial uptake in pancreas [9, 11]: exceeding 10 % ID/g
Specific binding in the brain ([9]; blockade with RO5425754 4 mg/kg, 15 min post-injection): no specific binding was detected
Specific binding in the kidney [9, 12]: 52.5 ± 14.3%
Specific binding in the liver [9, 12]: 30.2 ± 12.2%
Specific binding in the pancreas [9, 12]: 52.2 ± 15.2%
Parent tracer fraction in brain [10]: exceeded 80%
Parent tracer fraction in pancreas [10]: exceeded 80%
Parent tracer fraction in plasma [10]: exceeded 80%
